Here are results for eight compounds from patent publication US11851410B2, “Sensors for detection of negatively charged phosphate-containing membranes and membrane components” (THE GOVERNING COUNCIL OF THE UNIVERSITY OF TORONTO, priority 2017, dated 2023).

The conditions of series [1]: cited from earlier work.
The subject of series [2] is DOPS (PS) negatively charged vesicles. Nature of the series: Serial dilution vesicle fluorescence intensity experiments, PS vesicles. The class given is binding. Also on record: ΔΔFI: unit not given here. The settings on record: for ΔΔFI: sensor 25 μM (PSVue™380 1 μM), 50 mM HEPES, 5% DMSO, pH 7.5.
Series [3] has the same test system. Described as above. The series is classed as binding. On the set-up: ΔΔFI: unit not given here. As to conditions: for ΔΔFI: sensor 25 μM (PSVue™380 1 μM), 50 mM HEPES, 5% DMSO, pH 7.5. The source says: (§1) The following equations were used for the calculations: […]
It is estimated that a mammalian cell membrane is composed of 10% PS, with the majority located on the inner leaflet in the healthy state. However, during the early stages of apoptosis, this asymmetry is lost and PS becomes symmetrically distributed resulting in ˜5% of PS externalized to the outer leaflet. To address if compounds of this application could potentially be used for the detection of the PS externalization event during apoptosis, the exemplary sensors were screened against PC vesicles containing biologically-relevant levels of PS ([…]; assuming that approximately half of the lipid head groups will be exposed to the interior of the vesicle). The resulting ΔΔFI for vesicle concentrations up to 40 μM are presented in FIG. 7 and Table 1 (ΔΔFI for vesicle concentrations up to 200 μM is presented in FIG. 4).
The source holds these as a separate data set.

In series [4] the test system is POPE (PE) zwitterionic vesicles. As to the kind of experiment: Serial dilution vesicle fluorescence intensity experiments, PE vesicles. The class given is binding. As to conditions: sensor 25 μM (PSVue™380 1 μM), 50 mM HEPES, 5% DMSO, pH 7.5.
Text: as §1

Series [5] has as its system TOCL (CL) negatively charged vesicles. As to the kind of experiment: Serial dilution vesicle fluorescence intensity experiments, CL vesicles. The series is classed as binding. Also on record: ΔΔFI: unit not given here. As to conditions: for ΔΔFI: sensor 25 μM (PSVue™380 1 μM), 50 mM HEPES, 5% DMSO, pH 7.5.
Text: as §1

In series [6] the test system is POPA (PA) negatively charged vesicles. Nature of the series: Serial dilution vesicle fluorescence intensity experiments, PA vesicles. The class given is binding. The settings on record: for ΔΔFI: PA vesicles, sensor 25 μM (PSVue™380 1 μM), 50 mM HEPES, 5% DMSO, pH 7.5.
Text: as §1

Series [7] deals with POPG (PG) negatively charged vesicles. As to the kind of experiment: Serial dilution vesicle fluorescence intensity experiments, PG vesicles. The class given is binding. The settings on record: sensor 25 μM (PSVue™380 1 μM), 50 mM HEPES, 5% DMSO, pH 7.5.
Text: as §1

The test system of series [8] is Gram-positive bacteria (B. subtilis, B. megaterium, M. luteus, S. epidermidis). The settings on record: sensor 10 μM; λex/em 350/476 nm.
Procedure: Bacteria samples were titrated from 10^8-10^10 cells/mL in a large-volume 12 well plate. Bacteria samples were added to black 384-well plates in triplicate.
For series [9], the system named is negatively charged vesicles (PA, PS, PG, CL). As to the kind of experiment: Vesicle fluorescence intensity experiments, all negatively charged vesicles. The series is classed as binding. As to conditions: sensor 25 μM; vesicles up to 200 μM; λex/em 350/476 nm. Here is the method: (§2) Small Unilamellar Vesicles (SUVs) were prepared by the extrusion method. Appropriate amounts of lipid in the desired proportions were weighed out to create 10 mM liposome suspensions. The lipids were then dissolved in a minimum amount of chloroform and vortexed to ensure thorough mixing. The excess solvent was then dried off under a gentle stream of nitrogen and allowed to dry overnight in a vacuum dessicator to remove any remaining traces of solvent. The resulting lipid film was then hydrated with 2 mL of HEPES buffer (50 mM HEPES, pH 7.5) for 1 h. The sample was then subjected to five cycles of freeze-thaw-vortex, cycling between liquid nitrogen and a 60° C. water bath. The resulting suspension of multilamellar vesicles (MLVs) was then extruded 25 times through a 0.1 μm polycarbonate membrane installed in a mini-extruder (Avanti Polar Lipids, Alabaster, AL) to form SUV.
10 mM stock solutions of vesicles were diluted separately to 400 μM and 80 μM in pH 7.5, 50 mM HEPES buffer. […] The sensors were dissolved to a concentration of 50 μM (from 800 μM stock solutions in 100% DMSO) in 50 mM HEPES, pH 7.5, 10% DMSO buffer. […] Fluorescence intensities measured were used to calculate the following parameters: ΔFIexc, ΔΔFIexc, ΔFImon, ΔΔFImon, ΔΔFIexc/mon and ΔΔΔFI. The following equations were used for the calculations: […]
Of these, PC and PE represented the zwitterionic vesicles; PS (−1), PA (−1), PG (−1) and CL (−2) represented the negatively charged vesicles.
(§3) The fluorescence enhancement of the excimer (ΔFIexc) species in the presence of vesicles was calculated using equation 1, which is defined as the ratio of the emission intensities of the sensor-vesicle sample and the sensor alone.

The test system of series [10] is zwitterionic vesicles (PC, PE). Nature of the series: Vesicle fluorescence intensity experiments, zwitterionic vesicles. The series is classed as binding. As to conditions: sensor 25 μM; vesicles up to 200 μM; λex/em 350/476 nm. On the procedure:
as §2
10 mM stock solutions of vesicles were diluted separately to 400 μM and 80 μM in pH 7.5, 50 mM HEPES buffer. […] Fluorescence intensities measured were used to calculate the following parameters: ΔFIexc, ΔΔFIexc, ΔFImon, ΔΔFImon, ΔΔFIexc/mon and ΔΔΔFI. […]
as §3

The test system of series [11] is PA vesicles. As to the kind of experiment: Zinc metalation fluorescence experiments. The settings on record: for FIexc response to increasing PA vesicle concentrations, unmetallated: acid-treated glassware, chelex-treated buffers, non-normalized FIexc; for ability to detect PA vesicles in the absence of Zn^2+ (ΔFI): unmetallated sensors, PA vesicles 0-200 μM. The class given is binding. Here is the method: Vesicle fluorescence intensity experiments were performed in the absence or presence of zinc(II) (trifluoromethanesulfonate salt). Unmetallated PSVue™380 (PSVue™380*) was also included for reference.
All glassware was treated with 0.1 M HCl overnight, rinsed three times with MilliQ water, and oven dried. […] The sensor-zinc solutions were then combined with PA vesicles, prepared as described above, incubated as described above and the fluorescence emission intensity was then measured as described above.
In an effort to eliminate this possibility, all glassware was acid-treated and all buffers were chelex-treated to remove any metals, and the screens were repeated with PA vesicles. For these experiments, original non-normalized FIexc values were analyzed.

The subject of series [12] is WT and mutant E. coli strains. Nature of the series: Bacteria mutant strain knockout fluorimetry, E. coli. The class given is cell-based. The settings on record: for effect of LPS kinase knockouts on fluorescence fold: E. coli ΔWaaP, ΔwaaG; for effect of cardiolipin synthase knockouts on fluorescence fold: E. coli ΔclsA, ΔclsB, ΔclsC. From the text:
Fluorescence intensities were used to calculate the excimer emission in response to bacterial strains. Measurements were averaged over two triplicates.

[13] abbreviates: 75% PS vesicles, 20 μM vesicles.
Where [14] appears, read: PS vesicles (50%), 5 μM vesicles.
The mark [15] stands for this setting: PS vesicles (50%), 20 μM vesicles.
The mark [16] stands for this setting: 25% PS vesicles, 20 μM vesicles.
Where [17] appears, read: 33% CL vesicles, 20 μM vesicles.
[18] abbreviates: CL vesicles (50%), 5 μM vesicles.
Where [19] appears, read: CL vesicles (50%), 20 μM vesicles.

With `c1ccc(CNCc2ccccn2)nc1` [DPA], in [1], the “pKa” value is 2.60, the “pKa (first given)” value is 7.30 and the “pKa (third printed)” value is on record as 1.12.

Consider `c1cc2ccc3ccc(CCCCN4CCNCCNCCNCC4)c4ccc(c1)c2c34` [I-2], for which the ΔΔFI in [2] (75% PS vesicles, 5 μM vesicles) stood at 4.2; in series [2] (setting [13]), 11.7; in [2] (setting [14]), 2.8; in [2] (setting [15]) it was 7.6; in [3] (5% PS vesicles, 5 μM vesicles), 1.6; in [3] (5% PS vesicles, 20 μM vesicles) it was 3.1. Also, the ΔΔFI in [3] (25% PS vesicles, 5 μM vesicles) worked out at 1.8; in series [3] (setting [16]), 4.3; in series [4] (5 μM vesicles) it was 1.1; in series [4] (20 μM vesicles), 1.6; in series [5] (33% CL vesicles, 5 μM vesicles) it was 3; in series [5] (setting [17]), 7.2. Moreover, the ΔΔFI in series [5] (setting [18]) was 4.4; in series [5] (setting [19]) it was 12; in series [6] (5 μM vesicles), 4.3; in [6] (20 μM vesicles) it was 12.3; in series [7] (5 μM vesicles), 2.5; in series [7] (20 μM vesicles) it was 5.5.

With `c1cc2ccc3ccc(CCCCN4CCCNCCNCCCNCC4)c4ccc(c1)c2c34` [I-4], the “sensitivity compared to PSVue™380, 5 μM PS vesicles” value in series [2] (5 μM PS vesicles) is recorded as “comparable”. The ΔΔFI in series [2] (75% PS vesicles, 5 μM vesicles) is recorded as 7.1; in series [2] (setting [13]) it was 16.7; in [2] (setting [14]), 4.5; in series [2] (setting [15]), 10.3; in [3] (5% PS vesicles, 5 μM vesicles), 2.2; in series [3] (5% PS vesicles, 20 μM vesicles) it was 3.9. In addition, the ΔΔFI was 2.9 in series [3] (25% PS vesicles, 5 μM vesicles); 5.6 in series [3] (setting [16]); 1 in series [4] (5 μM vesicles); 1.3 in [4] (20 μM vesicles); 3.9 in [5] (33% CL vesicles, 5 μM vesicles); 9.2 in series [5] (setting [17]). In addition, the ΔΔFI in series [5] (setting [18]) is reported as 5.9; in [5] (setting [19]), 16.3; in series [6] (5 μM vesicles), 7.3; in series [6] (20 μM vesicles) it was 21.7; in series [7] (5 μM vesicles) it was 3.4; in [7] (20 μM vesicles), 7.7. Moreover, the “detection of PC vesicles containing 5 and 25% PS” value in [3] (5 and 25% PS, corresponding to 2.5 and 12.5% of PS exposed to solution) is recorded as “efficiently detected”. Further, the “sensitivity compared to PSVue™380, 20 μM CL vesicles” value in series [5] (20 μM CL vesicles) is reported as “comparable”. The “sensing PA compared to PSVue™380” value in series [6] (Table 1 comparison) is recorded as “superior”. Further, the “detection of Gram-positive bacteria with a fluorometer in bulk solution” value in series [8] is reported as “can detect Gram-positive bacteria”.

Regarding `c1ccc(CN(CCCCc2ccc3ccc4cccc5ccc2c3c45)Cc2ccccn2)nc1` [I-6], the ΔΔFI in series [2] (75% PS vesicles, 5 μM vesicles) is 4.5; in [2] (setting [13]), 7.5; in series [2] (setting [14]), 2.9; in series [2] (setting [15]), 4.8; in series [3] (5% PS vesicles, 5 μM vesicles), 1.6; in [3] (5% PS vesicles, 20 μM vesicles) it was 2.4. The ΔΔFI in series [3] (25% PS vesicles, 5 μM vesicles) was 2.1; in [3] (setting [16]) it was 3; in series [4] (5 μM vesicles), 1; in series [4] (20 μM vesicles) it was 1; in series [5] (33% CL vesicles, 5 μM vesicles), 1.9; in [5] (setting [17]) it was 3.1. In addition, the ΔΔFI is 2.7 in [5] (setting [18]); 4.3 in series [5] (setting [19]); 4.4 in [6] (5 μM vesicles); 6.9 in [6] (20 μM vesicles); 1.8 in series [7] (5 μM vesicles); 2.7 in series [7] (20 μM vesicles).

In the case of `O=C(CCCCc1ccc2ccc3cccc4ccc1c2c34)NCCNC(=O)c1ccc(CN(Cc2ccccn2)CC(O)CN(Cc2ccccn2)Cc2ccccn2)nc1` (centres unmarked) [I-12], in series [9], the “ΔFIexc for all negatively charged vesicles” value is recorded as ≥ 20 and the “ΔFIexc for negatively charged vesicles, highest value (up to)” value is listed as ~80. In addition, the “ΔFIexc for zwitterionic vesicles” value in series [10] is ≤ 2.

On to `c1cc2ccc3ccc(CN4CCNCCNCCNCC4)c4ccc(c1)c2c34` [II-1, 1-(pyren-1-ylmethyl)-1,4,7,10-tetraazacyclododecane], for which, in series [11] (PA vesicles), the “ΔFI of unmetallated sensor versus metallated counterpart” value is “outperformed its metallated counterpart”. Also, in series [11], the “FIexc response to increasing PA vesicle concentrations, unmetallated” value is given as “comparable responses” and the “ability to detect PA vesicles in the absence of Zn^2+ (ΔFI)” value is given as “retained their ability to detect PA”.

With `c1cc2ccc3ccc(CN4CCCNCCNCCCNCC4)c4ccc(c1)c2c34` [II-3, 1-(pyren-1-ylmethyl)-1,4,8,11-tetraazacyclotetradecane], in series [12], the “effect of LPS kinase knockouts on fluorescence fold” value is “little to no change” and the “effect of cardiolipin synthase knockouts on fluorescence fold” value is recorded as “greatest effect”.

In the case of `c1ccc(CN(Cc2ccccn2)Cc2ccc3ccc4cccc5ccc2c3c45)nc1` [II-5, 1-(pyren-1-yl)-N, N-bis(pyridin-2-ylmethyl)methanamine], in [12], the “effect of LPS kinase knockouts on fluorescence fold” value is listed as “little to no change” and the “effect of cardiolipin synthase knockouts on fluorescence fold” value is “greatest effect”. In series [11], the “FIexc response to increasing PA vesicle concentrations, unmetallated” value was “did not respond” and the “ability to detect PA vesicles in the absence of Zn^2+ (ΔFI)” value is listed as “lost their ability to sense PA”.

As a reminder, the pKa is the pH at which an ionisable group is half protonated.
